From US7705178B2, “Altering the crystal size distribution of N-(phosphonomethyl) iminodiacetic acid for improved filtration and product quality” (priority 2005, dated 2010)
“And” between values parts separate entries of the source, which are not always exact repeats. Equal entries are not always repeated.

Experiments:
[1] = assay type: physicochemical; conditions: room temperature (about 25 °C); mother liquor having a relatively high impurity content
Description: It has been determined that glyphosine and NMG are more soluble in PMIDA mother liquor than is PMIDA. […] Those solubility limits are higher than the impurity concentration typically encountered in the prior art processes, thus it is believed that it is unlikely that impurity partitioning to the PMIDA wetcake results from solubility considerations such as impurities precipitating from solution onto the forming PMIDA crystal.

[2] = Equilibrium PMIDA concentration in PM reactor mother liquor (interrupted feed experiments); assay type: physicochemical; conditions: for Equilibrium PMIDA in PM mother liquor (wt %): 60:40 DSIDA split
Protocol: PMIDA solubility limits change throughout the PM reaction making supersaturation prediction problematic. Several laboratory experiments were performed at 105° C. using a 60:40 DSIDA split between the hydrolyzer and PM reactor in order to evaluate supersaturation limits during seeding and the initial stages of the crystallization event. The PM feed amounts were altered such that only a portion of the typical feed amounts were used in order to simulate various stages of the PM reaction step. […] It is believed, without being bound to any particular theory, that as NaCl is produced during the PM reaction, and HCl is consumed, PMIDA solubility is suppressed. Table B presents PMIDA solubility in the PM reactor mother liquor at varying amounts of formalin addition.
Several laboratory experiments using an interrupted feed were performed to evaluate supersaturation limits during seeding and the initial stages of the crystallization event. The PM feed amounts were altered such that only a portion of the typical feed amounts were used in order to simulate various stages of the PM reaction step. The first two experiments were designed such that only about 40% of the typical feed amounts were used in order to mimic reactor conditions that occurred during seed addition of early-seeding experiments. These experiments utilized a 60:40 DSIDA split between the hydrolyzer and PM reactor, 43% formalin, and DSIDA1. In the first experiment, a spike of about 0.3% of NMG on a final batch weight basis was added to the reactor following the hydrolysis step. Following the PM reaction, about 6.4% of seed on a final batch weight basis were added after the feeds were completed and a sample was removed. Post-seed samples were removed at 20, 40 and 100 minutes following the seed addition to determine the rate at which supersaturation would be relieved. All of the samples were taken at approximately 105° C. As the temperature decreased, additional samples were taken at 75° C. and 50° C. The first experiment data are in Table 9A below.
In the second experiment, no NMG was added after the hydrolysis step, and seed crystals were not added. Post-feed samples were removed at 0, 60 and 240 minutes following completion of the feed addition. The second experiment data are in Table 9B below.
A third experiment was designed such that only about 70% of the typical feed amounts were used in order to simulate PM reactor conditions when the PMIDA crystallization event typically takes place. The experiment utilized a 60:40 DSIDA split between the hydrolyzer and PM reactor, 37% formalin, and DSIDA1. No NMG was added after the hydrolysis step, and seed crystals were not added. Following the completion of the feeds, the reactor contents were allowed to mix at 105° C. for approximately 21 hours before sampling.
The fourth experiment was designed such that 100% of the typical feed amounts were added to the reactor in order to determine the equilibrium PMIDA solubility of the mother liquor after all of the feeds had been added. This experiment utilized a 60:40 DSIDA split between the hydrolyzer and PM reactor, 37% formalin, and DSIDA1. No NMG was added after the hydrolysis step, and seed crystals were not added. Following completion of the feeds, the reactor contents were allowed to mix at 105° C. for approximately 21 hours before sampling. […] Thus, it is believed, without being bound to any particular theory, that as the PM reaction progresses, supersaturation increase is a function of both PMIDA in situ generation and a decreasing solubility limit.
A fifth experiment was designed to determine the equilibrium mother liquor PMIDA concentration just prior to the crystallization event when a 75:25 DSIDA feed split is used. In addition to the feed split, the experiment used 37% formalin and DSIDA1. No NMG was added after the hydrolysis step, and seed crystals were not added. Mother liquor samples were removed during the course of the experiment. […]

[3] = PMIDA solubility in acidified PM mother liquor; assay type: physicochemical; conditions: commercial batch mother liquor acidified with HCl
Protocol: For instance, mother liquor recovered at the end of a commercial scale batch was acidified with HCl in order to have an HCl content approximately equivalent to that found at the end of the PM reaction.
The data in Table 9B indicate that low levels of supersaturation will relieve over time. […] Solubility experiments indicate that the PMIDA solubility limit in acidified ML at 105° C. is between about 6.4 wt % and about 8.5 wt %. As noted in Tables 9A and 9B, equilibrium samples were also taken at various temperatures.

| SMILES | solubility limit in PMIDA mother liquor [1] | Equilibrium PMIDA in PM mother liquor (wt %) ([2]; 40% of total formalin added to PM reactor, 105 °C) | Equilibrium PMIDA in PM mother liquor (wt %) ([2]; 70% of total formalin added to PM reactor, 105 °C) | Equilibrium PMIDA in PM mother liquor (wt %) ([2]; 100% of total formalin added to PM reactor, 105 °C) | PM mother liquor PMIDA concentration, averaged equilibrium data ([2]; 105 °C, average of interrupted runs 1 and 2) | ML PMIDA (wt %), equilibrium ([2]; PM interrupted run 1 (about 40% of feeds, seeded, NMG spike), equilibrium at 50 °C) | ML PMIDA (wt %), equilibrium ([2]; PM interrupted run 1 (about 40% of feeds, seeded, NMG spike), equilibrium at 75 °C) | ML PMIDA (wt %), equilibrium ([2]; PM interrupted run 1 (about 40% of feeds, seeded, NMG spike), equilibrium at 105 °C) | ML PMIDA (wt %), equilibrium ([2]; PM interrupted run 2 (about 40% of feeds, no seed, no NMG), equilibrium at 50 °C) | ML PMIDA (wt %), equilibrium ([2]; PM interrupted run 2 (about 40% of feeds, no seed, no NMG), equilibrium at 75 °C) | ML PMIDA (wt %), equilibrium ([2]; PM interrupted run 2 (about 40% of feeds, no seed, no NMG), equilibrium at 105 °C) | ML PMIDA (wt %), equilibrium ([2]; PM interrupted run 5, 75:25 DSIDA split, 84.0% of total formalin added, equilibrium at 105 °C, about 19 hours) | PMIDA Solubility in PM Mother Liquor, PM (wt %) ([3]; 20 °C) | PMIDA Solubility in PM Mother Liquor, PM (wt %) ([3]; 50 °C) | PMIDA Solubility in PM Mother Liquor, PM (wt %) ([3]; 70 °C) | PMIDA Solubility in PM Mother Liquor, PM (wt %) ([3]; 90 °C) | PMIDA Solubility in PM Mother Liquor, PM (wt %) ([3]; 115 °C) |
| --- | --- | --- | --- | --- | --- | --- | --- | --- | --- | --- | --- | --- | --- | --- | --- | --- | --- |
| CN(CC(=O)O)CP(=O)(O)O [NMG, N-methyl-N-(phosphonomethyl)glycine] | about 3.6 wt % |  |  |  |  |  |  |  |  |  |  |  |  |  |  |  |  |
| O=C(O)CN(CC(=O)O)CP(=O)(O)O [PMIDA, N-(phosphonomethyl)iminodiacetic acid] |  | 12.6% wt % | 8.6 wt % and 8.6% wt % | 5.9 wt % and 5.9% wt % | about 16.4 wt % | 3.3 wt % | 5.3 wt % | 12.4 wt % | 4.0 wt % | 8.1 wt % | 13.8 wt % | 14.4 wt % | 0.52 wt % | 1.26 wt % | 2.29 wt % | 4.15 wt % | 8.72 wt % |
| O=C(O)CN(CP(=O)(O)O)CP(=O)(O)O [glyphosine, N,N-bis-(phosphonomethyl)glycine] | about 3.9 wt % |  |  |  |  |  |  |  |  |  |  |  |  |  |  |  |  |
